From ChEMBL document CHEMBL1151673, “Vasculyne, a new cytotoxic acetylenic alcohol from the marine sponge Cribrochalina vasculum” (1996)
≈ marks a conversion by molar mass, not a printed value.

How the values were obtained:
[1] = Cytotoxicity against human melanoma cells; type: functional; conditions: Melanoma cell
[2] = Cytotoxicity against human colon cancer cells; type: functional; conditions: Cancer cell lines
[3] = read-out: LC50 (the source's name)

C#C[C@H](O)/C=C\CCCCCCCCCCCCCCCCCCCCCCCC/C=C/CCCCCCC/C=C/[C@@H](O)C#C [VASCULYNE]
GI50 [1]: 0.2 µg/mL (≈ 0.321 µM)
TGI [1]: 0.7 µg/mL (≈ 1.12 µM)
CC50 [1, 3]: 6.7 µg/mL (≈ 10.8 µM)
GI50 [2]: 0.2 µg/mL (≈ 0.321 µM)
TGI [2]: 0.7 µg/mL (≈ 1.12 µM)
CC50 [2, 3]: 6.7 µg/mL (≈ 10.8 µM)
